Reference: patent publication US8143290B2, “Chemical compounds 572” (AstraZeneca AB, priority 2006, dated 2012)
Counter-ions that a name gives are not always drawn.

biological target: T1, recombinant human GR (Homo sapiens, UniProt P04150); assay: Human Glucocorticoid Receptor (GR) Assay, fluorescence polarization; assay type: binding; settings: GS Red tracer, incubated 2 h at r.t., XLfit model 205, read-out: GRhuFL_FP_v2 Mean IC50
T1 construct: purchased Panvera/Invitrogen P2812 (kit P2893)
T1 sequence (P04150 1-777): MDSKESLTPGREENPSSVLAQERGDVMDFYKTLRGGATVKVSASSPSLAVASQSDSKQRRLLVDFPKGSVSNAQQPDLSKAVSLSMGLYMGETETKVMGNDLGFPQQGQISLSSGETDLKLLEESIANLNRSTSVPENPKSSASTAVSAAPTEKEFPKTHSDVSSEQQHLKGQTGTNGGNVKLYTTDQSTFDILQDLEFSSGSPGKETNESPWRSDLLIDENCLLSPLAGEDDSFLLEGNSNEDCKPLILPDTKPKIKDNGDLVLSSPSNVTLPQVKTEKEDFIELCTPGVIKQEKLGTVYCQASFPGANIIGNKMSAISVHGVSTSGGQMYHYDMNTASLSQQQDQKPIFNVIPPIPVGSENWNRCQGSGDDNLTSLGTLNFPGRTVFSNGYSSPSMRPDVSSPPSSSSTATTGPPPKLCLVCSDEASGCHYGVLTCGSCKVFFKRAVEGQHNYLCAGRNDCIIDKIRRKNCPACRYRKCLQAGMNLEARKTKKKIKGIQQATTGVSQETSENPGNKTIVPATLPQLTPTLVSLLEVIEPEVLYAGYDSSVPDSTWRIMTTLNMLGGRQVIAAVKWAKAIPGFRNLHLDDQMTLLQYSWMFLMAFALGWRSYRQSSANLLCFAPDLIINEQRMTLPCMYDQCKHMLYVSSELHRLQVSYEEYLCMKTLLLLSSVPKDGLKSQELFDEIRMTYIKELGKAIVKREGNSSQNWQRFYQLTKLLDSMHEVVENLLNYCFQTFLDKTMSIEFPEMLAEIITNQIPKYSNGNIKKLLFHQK
In short: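 After 2 h dark incubation at r.t., polarization reported displacement of the GS Red tracer from recombinant GR, in buffer with phosphate, molybdate, EDTA, DTT and Stabilizing Peptide. Controls: dexamethasone (100%) and DMSO (0%).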

Going from `COc1cccc([C@@H](Oc2ccc3c(cnn3-c3ccc(F)cc3)c2)[C@H](C)NC(=O)c2cc(C)on2)c1` [Example 136, N-[(1R,2S)-1-[1-(4-fluorophenyl)indazol-5-yl]oxy-1-(3-methoxyphenyl)propan-2-yl]-5-methyl-1,2-oxazole-3-carboxamide] to `COc1cccc([C@@H](Oc2ccc3c(cnn3-c3ccc(F)cc3)c2)[C@H](C)NC(=O)c2nnc(C)o2)c1` [Example 277, N-[(1R,2S)-1-[1-(4-fluorophenyl)indazol-5-yl]oxy-1-(3-methoxyphenyl)propan-2-yl]-5-methyl-1,3,4-oxadiazole-2-carboxamide], the IC50 rises from 3 nM to 4.7 nM (1.6-fold). The first is the more potent here.

Compared with `COc1cccc([C@@H](Oc2ccc3c(cnn3-c3ccc(F)cc3)c2)[C@H](C)NC(=O)C(=O)N(C)C)c1` [Example 80, N-[(1R,2S)-1-[1-(4-Fluorophenyl)indazol-5-yl]oxy-1-(3-methoxyphenyl)propan-2-yl]-N′,N′-dimethyl-oxamide], `COc1cccc([C@@H](Oc2ccc3c(cnn3-c3ccc(F)cc3)c2)[C@H](C)NC(=O)C(N)=O)c1` [Example 76, N-[(1R,2S)-1-[1-(4-Fluorophenyl)indazol-5-yl]oxy-1-(3-methoxyphenyl)propan-2-yl]oxamide] is 1.7-fold lower in IC50: 3.7 nM for the first, 2.2 nM for the second. The second is the more potent here.

Compared with `Cc1cc(Cl)ccc1[C@@H](Oc1ccc2c(cnn2-c2ccc(F)cc2)c1)[C@H](C)NC(=O)C(F)(F)F` [Example 169, N-[(1R,2S)-1-(4-chloro-2-methyl-phenyl)-1-[1-(4-fluorophenyl)indazol-5-yl]oxy-propan-2-yl]-2,2,2-trifluoro-acetamide], `Cc1ccc(C)c([C@@H](Oc2ccc3c(cnn3-c3ccc(F)cc3)c2)[C@H](C)NC(=O)C(F)(F)F)c1` [Example 153, N-[(1R,2S)-1-(2,5-dimethylphenyl)-1-[1-(4-fluorophenyl)indazol-5-yl]oxy-propan-2-yl]-2,2,2-trifluoro-acetamide] is 2.2-fold lower in IC50: 8.1 nM for the first, 3.6 nM for the second.

Compared with `COc1c(C)cc([C@@H](Oc2ccc3c(cnn3-c3ccc(F)cc3)c2)[C@H](C)NC(=O)c2ncc(C)s2)cc1C` [Example 203, N-[(1R,2S)-1-[1-(4-fluorophenyl)indazol-5-yl]oxy-1-(4-methoxy-3,5-dimethyl-phenyl)propan-2-yl]-5-methyl-1,3-thiazole-2-carboxamide], `COc1cccc([C@@H](Oc2ccc3c(cnn3-c3ccc(F)cc3)c2)[C@H](C)NC(=O)c2ncco2)c1` [Example 84, N-((1R,2S)-1-(1-(4-fluorophenyl)-1H-indazol-5-yloxy)-1-(3-methoxyphenyl)propan-2-yl)oxazole-2-carboxamide] is 2.3-fold lower in IC50: 5.4 nM for the first, 2.3 nM for the second.

`C[C@H](NC(=O)C(C)(C)C)[C@H](Oc1ccc2c(cnn2-c2ccc(F)cc2)c1)c1ccccc1Cl` [Example 300, N-((1R,2S)-1-(2-chlorophenyl)-1-(1-(4-fluorophenyl)-1H-indazol-5-yloxy)propan-2-yl)pivalamide] and `C[C@H](NC(=O)C(Cl)(Cl)Cl)[C@H](Oc1ccc2c(cnn2-c2ccc(F)cc2)c1)c1ccccc1` [Example 40, 2,2,2-Trichloro-N-[(1R,2S)-1-[1-(4-fluorophenyl)indazol-5-yl]oxy-1-phenyl-propan-2-yl]acetamide] are within 1.5-fold of each other in IC50: 2.4 nM for the first, 3.4 nM for the second.

First: COc1cccc([C@@H](Oc2ccc3c(cnn3-c3ccc(F)cc3)c2)[C@H](C)NC(=O)[C@@H](C)N)c1 [Example 303, (R)-2-amino-N-((1R,2S)-1-(1-(4-fluorophenyl)-1H-indazol-5-yloxy)-1-(3-methoxyphenyl)propan-2-yl)propanamide trifluoroacetic acid salt]
Second: COc1cccc([C@@H](Oc2ccc3c(cnn3-c3ccc(F)cc3)c2)[C@H](C)NC(=O)CO)c1 [Example 121, N-[(1R,2S)-1-[1-(4-fluorophenyl)indazol-5-yl]oxy-1-(3-methoxyphenyl)propan-2-yl]-2-hydroxy-acetamide]
The IC50 of the first is 1.8-fold higher: 5 nM for the first, 2.8 nM for the second. The second is the more potent here.

`C[C@H](NC(=O)CO)[C@H](Oc1ccc2c(cnn2-c2ccc(F)cc2)c1)c1ccccc1` [Example 16, N-[(1R,2S)-1-[1-(4-fluorophenyl)indazol-5-yl]oxy-1-phenyl-propan-2-yl]-2-hydroxy-acetamide] and `CCc1cccc([C@@H](Oc2ccc3c(cnn3-c3ccc(F)cc3)c2)[C@H](C)NC(=O)CO)c1` [Example 23, N-[(1R,2S)-1-(3-ethylphenyl)-1-[1-(4-fluorophenyl)indazol-5-yl]oxy-propan-2-yl]-2-hydroxy-acetamide] are within 1.5-fold of each other in IC50: 2.4 nM for the first, 3.2 nM for the second.

Compared with `COc1cccc([C@@H](Oc2ccc3c(cnn3-c3ccc(F)cc3)c2)[C@H](C)NC(=O)C(=O)NC(C)(C)C)c1` [Example 82, N-[(1R,2S)-1-[1-(4-Fluorophenyl)indazol-5-yl]oxy-1-(3-methoxyphenyl)propan-2-yl]-N′-tert-butyl-oxamide], `CCOC(=O)C(=O)N[C@@H](C)[C@H](Oc1ccc2c(cnn2-c2ccc(F)cc2)c1)c1cccc(OC)c1` [Example 78, Ethyl [(1R,2S)-1-[1-(4-fluorophenyl)indazol-5-yl]oxy-1-(3-methoxyphenyl)propan-2-yl]carbamoylformate] is 1.7-fold lower in IC50: 5.3 nM for the first, 3.2 nM for the second.

Compared with `C[C@H](NC(=O)C(F)(F)F)[C@H](Oc1ccc2c(cnn2-c2ccc(F)cc2)c1)c1ccc(C(C)(C)C)cc1` [Example 163, 2,2,2-trifluoro-N-[(1R,2S)-1-[1-(4-fluorophenyl)indazol-5-yl]oxy-1-(4-tert-butylphenyl)propan-2-yl]acetamide], `CCc1ccc([C@@H](Oc2ccc3c(cnn3-c3ccc(F)cc3)c2)[C@H](C)NC(=O)C(F)(F)F)cc1` [Example 46, N-[(1R,2S)-1-(4-ethylphenyl)-1-[1-(4-fluorophenyl)indazol-5-yl]oxy-propan-2-yl]-2,2,2-trifluoro-acetamide] is 4.7-fold lower in IC50: 16 nM for the first, 3.4 nM for the second. The second is the more potent here.

`C[C@H](NC(=O)C(F)(F)F)[C@H](Oc1ccc2c(cnn2-c2ccc(F)cc2)c1)c1cc(F)cc(Cl)c1` [Example 161, N-[(1R,2S)-1-(3-chloro-5-fluoro-phenyl)-1-[1-(4-fluorophenyl)indazol-5-yl]oxy-propan-2-yl]-2,2,2-trifluoro-acetamide] and `C[C@H](NC(=O)C(F)(F)F)[C@H](Oc1ccc2c(cnn2-c2ccc(F)cc2)c1)c1ccc(Cl)c(F)c1` [Example 170, N-[(1R,2S)-1-(4-chloro-3-fluoro-phenyl)-1-[1-(4-fluorophenyl)indazol-5-yl]oxy-propan-2-yl]-2,2,2-trifluoro-acetamide] are within 1.5-fold of each other in IC50: 8.5 nM for the first, 7.1 nM for the second.

Going from `C[C@H](NC(=O)NCc1ccco1)[C@H](Oc1ccc2c(cnn2-c2ccc(F)cc2)c1)c1ccccc1` [Example 105, 1-{(1S,2R)-2-{[1-(4-Fluorophenyl)-1H-indazole-5-yl]oxy}-1-methyl-2-phenylethyl}-3-(2-furylmethyl)urea] to `C[C@H](NC(=O)C(C)(C)CO)[C@H](Oc1ccc2c(cnn2-c2ccc(F)cc2)c1)c1cccc(Cl)c1` [Example 255, N-[(1R,2S)-1-(3-chlorophenyl)-1-[1-(4-fluorophenyl)indazol-5-yl]oxy-propan-2-yl]-3-hydroxy-2,2-dimethyl-propanamide], the IC50 rises from 3.2 nM to 5.1 nM (1.6-fold).

First: COc1ccc([C@@H](Oc2ccc3c(cnn3-c3ccc(F)cc3)c2)[C@H](C)NC(=O)C2(C)CC2)c(C)c1 [Example 265, N-[(1R,2S)-1-[1-(4-fluorophenyl)indazol-5-yl]oxy-1-(4-methoxy-2-methyl-phenyl)propan-2-yl]-1-methyl-cyclopropane-1-carboxamide]
Second: C[C@H](NC(=O)C1(C)CC1)[C@H](Oc1ccc2c(cnn2-c2ccc(F)cc2)c1)c1ccc(F)c(F)c1 [Example 212, N-[(1R,2S)-1-(3,4-difluorophenyl)-1-[1-(4-fluorophenyl)indazol-5-yl]oxy-propan-2-yl]-1-methyl-cyclopropane-1-carboxamide]
The IC50 of the first is 4.8-fold higher: 25 nM for the first, 5.2 nM for the second.

First: COCC(=O)N[C@@H](C)[C@H](Oc1ccc2c(cnn2-c2ccc(F)cc2)c1)c1cccc(OC)c1 [Example 54, N-[(1R,2S)-1-[1-(4-fluorophenyl)indazol-5-yl]oxy-1-(3-methoxyphenyl)propan-2-yl]-2-methoxy-acetamide]
Second: COCC(=O)N[C@@H](C)[C@H](Oc1ccc2c(cnn2-c2ccc(F)cc2)c1)c1ccc(C)c(F)c1 [Example 259, N-[(1R,2S)-1-(3-fluoro-4-methyl-phenyl)-1-[1-(4-fluorophenyl)indazol-5-yl]oxy-propan-2-yl]-2-methoxy-acetamide]
The IC50 of the first is 1.8-fold lower: 2.9 nM for the first, 5.3 nM for the second. The first is the more potent here.

For `COc1cccc([C@@H](Oc2ccc3c(cnn3-c3ccc(F)cc3)c2)[C@H](C)NC(=O)c2ccc(Br)o2)c1` [Example 276, 5-bromo-N-[(1R,2S)-1-[1-(4-fluorophenyl)indazol-5-yl]oxy-1-(3-methoxyphenyl)propan-2-yl]furan-2-carboxamide], the IC50 was 12 nM.
